Laboratory results taken from PubChem BioAssay AID1845219 (Molecular Pharmacology Branch, DTP, NCI, 2023).
Where “and” joins values, the source holds several entries; their conditions need not be identical. Equal entries are not always repeated.

Tested on: SYO-1 tumor spheroids, viability % test/control
Experiment: Anticancer human tumor SYO-1 cell line growth inhibition;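 note: spheroids exposed to agents for 7 days before viability read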;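 for viability, T/C: 100% = DMSO vehicle control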
Conditions: spheroids with HUVEC and MSC; for viability, T/C: stronger effect = lower value
Method in brief: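 Complex tumor spheroids combined malignant cells with endothelial cells and mesenchymal stem cells. DNA-damaging drugs and DNA repair inhibitors were tested alone and in combination, at half-log dilutions down from clinical Cmax (top 10 microM if Cmax unknown), 0.25% DMSO final.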

COc1cc(C)[nH]c(=O)c1CN1CCc2c(Cl)cc(C(OC)C3COC3)c(Cl)c2C1=O (configuration not stated) + Cn1nnc2c(C(N)=O)ncn2c1=O
IC50 (curve of first compound, second compound 1 µM): > 10000 nM
IC50 (curve of first compound, second compound 3.16 µM): > 10000 nM
IC50 (curve of first compound, second compound 10 µM): > 10000 nM
IC50 (curve of first compound, second compound 31.6 µM): > 10000 nM
IC50 (curve of first compound, second compound 100 µM): 697 nM
viability, T/C (second compound 1 µM, first compound 0.0316 µM): 110%
viability, T/C (second compound 1 µM, first compound 0.1 µM): 108%
viability, T/C (second compound 1 µM, first compound 0.316 µM): 97.7%
viability, T/C (second compound 1 µM, first compound 1 µM): 86.7%
viability, T/C (second compound 1 µM, first compound 3.16 µM): 81.1%
viability, T/C (second compound 1 µM, first compound 10 µM): 73.8%
viability, T/C (second compound 3.16 µM, first compound 0.0316 µM): 110%
viability, T/C (second compound 3.16 µM, first compound 0.1 µM): 107%
viability, T/C (second compound 3.16 µM, first compound 0.316 µM): 99.5%
viability, T/C (second compound 3.16 µM, first compound 1 µM): 89.1%
viability, T/C (second compound 3.16 µM, first compound 3.16 µM): 77%
viability, T/C (second compound 3.16 µM, first compound 10 µM): 67.8%
viability, T/C (second compound 10 µM, first compound 0.0316 µM): 108%
viability, T/C (second compound 10 µM, first compound 0.1 µM): 107%
viability, T/C (second compound 10 µM, first compound 0.316 µM): 97.6%
viability, T/C (second compound 10 µM, first compound 1 µM): 89.7%
viability, T/C (second compound 10 µM, first compound 3.16 µM): 76.2%
viability, T/C (second compound 10 µM, first compound 10 µM): 71.6%
viability, T/C (second compound 31.6 µM, first compound 0.0316 µM): 119%
viability, T/C (second compound 31.6 µM, first compound 0.1 µM): 111%
viability, T/C (second compound 31.6 µM, first compound 0.316 µM): 95.1%
viability, T/C (second compound 31.6 µM, first compound 1 µM): 80.8%
viability, T/C (second compound 31.6 µM, first compound 3.16 µM): 69.6%
viability, T/C (second compound 31.6 µM, first compound 10 µM): 62.4%
viability, T/C (second compound 100 µM, first compound 0.0316 µM): 106%
viability, T/C (second compound 100 µM, first compound 0.1 µM): 102%
viability, T/C (second compound 100 µM, first compound 0.316 µM): 69.7%
viability, T/C (second compound 100 µM, first compound 1 µM): 40.5%
viability, T/C (second compound 100 µM, first compound 3.16 µM): 41.7%
viability, T/C (second compound 100 µM, first compound 10 µM): 35.6%

Cc1cc(C)c(CNC(=O)c2cc(-c3ccc(CN4CCOCC4)cc3)cc3c2cnn3C2CCCC2)c(=O)[nH]1 + COc1cc2c(cc1O)CCNC21CSC2c3c(OC(C)=O)c(C)c4c(c3C(COC1=O)N1C(O)C3Cc5cc(C)c(OC)c(O)c5C(C21)N3C)OCO4
IC50 (curve of first compound, second compound 30 pM): > 10000 nM
IC50 (curve of first compound, second compound 94.9 pM): 7980 nM
IC50 (curve of first compound, second compound 0.0003 µM): < 31.6 nM
IC50 (curve of first compound, second compound 0.000949 µM): < 31.6 nM
IC50 (curve of first compound, second compound 0.003 µM): < 31.6 nM
viability, T/C (second compound 30 pM, first compound 0.0316 µM): 103%
viability, T/C (second compound 30 pM, first compound 0.1 µM): 97.2%
viability, T/C (second compound 30 pM, first compound 0.316 µM): 100%
viability, T/C (second compound 30 pM, first compound 1 µM): 103%
viability, T/C (second compound 30 pM, first compound 3.16 µM): 107%
viability, T/C (second compound 30 pM, first compound 10 µM): 96.3%
viability, T/C (second compound 94.9 pM, first compound 0.0316 µM): 102%
viability, T/C (second compound 94.9 pM, first compound 0.1 µM): 96.3%
viability, T/C (second compound 94.9 pM, first compound 0.316 µM): 99.2%
viability, T/C (second compound 94.9 pM, first compound 1 µM): 99.8%
viability, T/C (second compound 94.9 pM, first compound 3.16 µM): 84.5%
viability, T/C (second compound 94.9 pM, first compound 10 µM): 41.1%
viability, T/C (second compound 0.0003 µM, first compound 0.0316 µM): 18.4%
viability, T/C (second compound 0.0003 µM, first compound 0.1 µM): 14.3%
viability, T/C (second compound 0.0003 µM, first compound 0.316 µM): 13.3%
viability, T/C (second compound 0.0003 µM, first compound 1 µM): 11%
viability, T/C (second compound 0.0003 µM, first compound 3.16 µM): 12.2%
viability, T/C (second compound 0.0003 µM, first compound 10 µM): 3.97%
viability, T/C (second compound 0.000949 µM, first compound 0.0316 µM): 0.91%
viability, T/C (second compound 0.000949 µM, first compound 0.1 µM): 0.86%
viability, T/C (second compound 0.000949 µM, first compound 0.316 µM): 1.11%
viability, T/C (second compound 0.000949 µM, first compound 1 µM): 0.97%
viability, T/C (second compound 0.000949 µM, first compound 3.16 µM): 0.9%
viability, T/C (second compound 0.000949 µM, first compound 10 µM): 1.08%
viability, T/C (second compound 0.003 µM, first compound 0.0316 µM): 0.13%
viability, T/C (second compound 0.003 µM, first compound 0.1 µM): 0.13%
viability, T/C (second compound 0.003 µM, first compound 0.316 µM): 0.13%
viability, T/C (second compound 0.003 µM, first compound 1 µM): 0.15%
viability, T/C (second compound 0.003 µM, first compound 3.16 µM): 0.14%
viability, T/C (second compound 0.003 µM, first compound 10 µM): 0.2%

CNCc1ccc(-c2cc(-c3nc(-c4ccc(S(=O)(=O)C(C)C)cc4)cnc3N)on2)cc1
viability, T/C (compound 0.00949 µM): 101% and 100% and 109%
viability, T/C (compound 0.03 µM): 101% and 99.2% and 99%
viability, T/C (compound 0.0949 µM): 72.5% and 86.8% and 89.3%
viability, T/C (compound 0.3 µM): 3.37% and 4.34% and 3.43%
viability, T/C (compound 0.949 µM): 0.29% and 0.76% and 0.36%
viability, T/C (compound 3 µM): 0.18% and 0.19% (2×)
IC50 (curve of compound): 138 nM and 159 nM and 161 nM
